Results: PMC7464304, “Multiple-Reaction Monitoring Tandem Mass Method for Determination of Phenolics and Water-Soluble Vitamins in Eccoilopus formosanus” (Molecules, 2020)

experiment: DPPH radical scavenging activity; details: 0.1 mM DPPH, 30 min in the dark at room temperature, absorbance 517 nm; mean ± SD (n = 3)
Procedure: The reaction mixture was left in the dark at room temperature for 30 min. […] The percentage of scavenging activity against the DPPH radical was calculated by the following equation:Radical scavenging activity (%) = (Abs control − Abs sample)/Abs control × 100% where Abs control is the absorbance of the DPPH radical in methanol; Abs sample is the absorbance of the DPPH radical solution mixed with the sample extract. […] All determinations were performed in triplicate.

`O=C(O)c1cc(O)c(O)c(O)c1` [Gallic acid, gallic acid] and `O=C(O)/C=C/c1ccc(O)c(O)c1` [Caffeic acid, caffeic acid] are within 1.5-fold of each other in “DPPH Radical Scavenging Activity, IC50 Value”: 21.1 ± 0.3 µg/mL for the first, 25.3 ± 0.3 µg/mL for the second.

`COc1cc(/C=C/C(=O)O)ccc1O` [Ferulic acid, ferulic acid] and `O=c1cc(-c2ccc(O)cc2)oc2cc(O)cc(O)c12` [Apigenin, apigenin] are within 1.5-fold of each other in “DPPH Radical Scavenging Activity, IC50 Value”: 45.2 ± 0.3 µg/mL for the first, 31.6 ± 0.9 µg/mL for the second.

For `Cc1ncc(C[n+]2csc(CCO)c2C)c(N)n1` [Thiamine, thiamine], the “DPPH Radical Scavenging Activity, IC50 Value” was >500 µg/mL.
